Assay results reported in US20110218229A1, “SIRT1 Modulation of Adipogenesis and Adipose Function” (priority 2003, published 2011).

How the values were obtained:
[1] = test system: primary rat white adipocytes; experiment: FFA release triggered by adrenalin in primary white adipocytes; format: cell-based; conditions: with adrenalin
Description: To determine whether Sirt1 stimulates fat mobilization in bona fide adipocytes, we cultured primary rat white adipocytes and activated fat mobilization with the known β-adrenergic inducer adrenalin. […] In a converse experiment using these rat adipocytes, we addressed whether inhibition of Sirt1 would blunt the mobilization of fat by adrenalin. Addition of the known Sirt1 inhibitor nicotinamide 16 indeed reduced the release of FFA triggered by adrenalin. The above findings indicate that Sirt1 not only represses the differentiation program of adipocytes, but also activates the mobilization of fat in fully differentiated cells.
Cell culture, retroviral infection and transfection. 3T3-L1, HEK293, 293T and Phoenix cells (ATCC, Rockville, Md.) were cultured in Dulbecco's modified Eagle's medium with 10% FCS, and antibiotics. Primary adipocytes from Sprague-Dawley rats were prepared as described previously 25. Transfections for luciferase assays were done as described using pSPORT6-PPAR-γ2, pGL3-PPRE26 and pcDNA3-Sirt1. Data were corrected for transfection efficiency.

UCP1 = UCP1 expression in BAT cells; format: cell-based
Description: Further observations were made. A mouse genetically deficient for SIRT1 activity cannot regulate body temperature in the cold. The mouse appears unable to induce the UCP1 gene or related transcriptional programs. We used chromatin immunoprecipitations to characterize genes which may include regulatory sequences that are directly or indirectly bound by SIRT1. We discovered that, at least in brown fat cells, the UCP1 promoter is bound by SIRT1. SIRT1 responds to stress and activates UCP1 transcription. At least in part, the transcriptional activation is a result of the PGC1 co-factor, which is present in BAT cells, but absent in WAT cells, PGC1 modifies SIRT1 from a repressor to an activator. PGC1, SIRT1, and PPARγ are able to form a ternary complex which functions as a transcriptional activator. SIRT1 may have a similar function in other cells that express PGC1, e.g., muscle and liver cells. Moreover, resveratrol increases UCP1 expression in BAT cells.

3T3-L1 adipocytes [2] = experiment: Fat content by staining in fully differentiated 3T3-L1 cells; format: cell-based, mouse
Protocol: (§1) We fully differentiated 3T3-L1 cells and subsequently (12 days after induction) applied the Sirt1 activator resveratrol over a wide range of concentrations. […] To validate further these visual results, we measured triglyceride content and free fatty acid (FFA) release in these cells.
(§2) To stimulate adipogenesis and accumulation of lipids in cells, medium was supplemented to confluent cells (day 0) with 2 μM insulin or 10^−7M rosiglitazone (Alexis Biochemicals), as stated in the text, 1 μM dexamethasone, and 0.25 mM isobuthylmethylxanthine (IBMX) for 2 days. The cells were then incubated with insulin or 10^-7 M rosiglitazone, changing the medium every second day. Fat accumulation was visualized by staining of lipids with Oil red O. Intracellular triglyceride levels were measured in cell lysates by an enzymatic method using a reagent kit from Boehringer Mannheim.

3T3-L1 adipocytes [3] = experiment: Free fatty acid (FFA) release in fully differentiated 3T3-L1 cells; format: cell-based, mouse
Protocol: as §1
Wild-type FVB male age-matched (12-16 weeks old) mice were used for the present studies. Sirt1+/+ and Sirt1+/− genotypes have been described previously 21. All mice were housed under controlled temperature (25±1° C.) and lighting conditions. Food provided was normal chow. All mice were cared for in accordance with the MIT animal care committee. Blood was collected from the retro-orbital sinus and kept on ice until centrifugation (1,500 g, 15 min at 4° C.), and the plasma was stored at −20° C. until analysis. All animals were killed by decapitation. WAT depots were collected, weighed and quickly frozen in liquid nitrogen and stored at −70° C. until further processing by immunoblotting. Non-esterified free fatty acids were determined by enzymatic assays (Wako Pure Chemical Industries).

3T3-L1 adipocytes [4] = experiment: Triglyceride content in fully differentiated 3T3-L1 cells; format: cell-based, mouse; conditions: control cells
Protocol: as §1, §2

3T3-L1 fibroblasts [5] = experiment: 3T3-L1 adipogenesis / differentiation (Oil Red O staining); format: cell-based, mouse
Protocol: The 3T3-L1 mouse fibroblasts used in this example, and in Examples 4-10 hereinafter, were prepared in accordance with standard protocol as follows. 3T3-L1 cells (ATCC CL-173, Rockville, Md.) were grown to confluence (day 0) in medium A (Dulbecco's modified Eagle's Medium with 10% fetal calf serum, 100 units/ml penicillin, and 100 μg/ml streptomycin). Confluent cell were incubated in medium A containing 2 μM insulin, 1 μM dexamethasone, and 0.25 mM isobuthyl methyl xanthine for two days. Thereafter, confluent fibroblasts were treated with insulin for five days and at the end of such treatment were in a condition for functional study. Adipogenesis was evaluated by analysis of the expression of adipocyte-specific markers and by staining of lipids with Oil Red O (Chawla & Lazar, 1994, Proc. Natl. Acad. Sci. USA 91, 1786-1790).
(§3) 3T3-L1 fibroblasts were transformed through standard techniques with either a pBABE control vector (“control fibroblasts”) or a vector comprising pBABE-mSIRT1 cDNA (“mSIRT1 cDNA fibroblasts”). Western Blot analyses of SIRT1 expression by the control and mSIRT1 cDNA fibroblasts were performed using antibodies and actin control as in Example 1.
(§4) 3T3-L1 fibroblasts were transformed with either a pSUPER control vector (“control fibroblasts”), a vector comprising pSUPER-mSIRT1 RNAi WT (SEQ ID NO: 24) (“mSIRT1 RNAi WT fibroblasts”), or pSUPER-mSIRT1 RNAiMUT (SEQ ID NO: 25), (“mSIRT1 RNAiMUT fibroblasts”). Western Blot analyses of SIRT1 expression by the control, mSIRT1 RNAi WT, and mSIRT1 RNAiMUT fibroblasts were performed using antibodies and actin controls as in Example 1.
as §2, with “The cells were then incubated with insulin or 10^-7 M rosiglitazone, changing the medium every second day.” left out

[6] = test system: C/EBPβ, C/EBPδ, C/EBPα, PPARγ, aP2; experiment: Adipogenesis transcription factor levels in 3T3-L1 (Western Blot, semi-quantitative RT-PCR); format: cell-based, mouse
Protocol: 3T3-L1 fibroblasts were transformed through standard techniques with either a pBABE control vector (“control fibroblasts”) or a vector comprising pBABE-mSIRT1 cDNA (“mSIRT1 cDNA fibroblasts”) in accordance with Example 4. Protein and total RNA was extracted from the differentiated cells. Western Blot analyses of levels of the PPARγ and C/EBPα transcription factors present in the protein extracts from the control and mSIRT1 cDNA fibroblasts were performed using antibodies and actin control as in Example 1.
Semi-quantitative RT-PCR analysis was also conducted to determine levels of the C/EBPβ, C/EBPδ, C/EBPα, PPARγ transcription factors and aP2 (PPARγ target gene) present in the protein and total RNA extracted from the control and mSIRT1 cDNA fibroblasts. In this analysis, GAPDH was used as an internal control for cDNA input in the PCR.
3T3-L1 fibroblasts were transformed through standard techniques with either a pSUPER control vector (“control fibroblasts”) or a vector comprising pSUPER-mSIRT1 RNAiWT ([…]) (“mSIRT1 RNAiWT fibroblasts”) in accordance with Example 5. Protein and total RNA was extracted from the differentiated cells. […]
Semi-quantitative RT-PCR analysis was also conducted to determine levels of the C/EBPβ, C/EBPδ, C/EBPα, PPARγ, and aP2 (PPARγ target gene) present in the protein and total RNA extracted from the control and mSIRT1RNAiWT fibroblasts. […]

SIRT1 = SIRT1 expression in transformed 3T3-L1 fibroblasts (Western Blot); format: cell-based, mouse; conditions: for SIRT1 expression level versus control fibroblasts: Western Blot, actin control
Protocol: Samples of inguinal, epididymal, and retroperitoneal WAT were taken from the mice and subjected to Western Blot analyses using actin as a control to determine if SIRT1 was expressed in each of the three samples. Protein samples were prepared from WAT adipocytes by lysis in RIPA buffer supplemented with protease inhibitors. Twenty micrograms of protein were resolved in 9% SDS-PAGE and transferred to nitrocellulose membranes. SIRT1 protein was probed with mSIRT1 antibody (Upstate Inc.) and detected by ECL (Amersham). An actin antibody (Santa Cruz) was used in the Western Blot as a control. Pronounced SIRT1 expression levels were detected in each of the three WAT samples.
as §3, §4
Retroviral infection was performed as described in Tontonoz et al. (1994) Cell 79:1147. Phoenix cells were transfected with either pBABE, pBABE-Sirt1, pSUPERretro (Oligoengine), pSUPERretro-Sirt1 RNAi (5′-GATGAAGTTGACCTCCTCA-3′, SEQ ID NO:24) or pSUPER-NCoR RNAi (5′-GCTGCATCCAAGGGCCATG-3′, SEQ ID NO:25) using Lipofectamine (Invitrogen). After 48 h of transfection, the medium containing retroviruses was collected, filtered, treated by polybrene (1 μg ml^−1) and transferred to 3T3-L1 target cells. Infected cells were selected with puromycin (2.5 μg ml^−1) for 7 days.

3T3-L1 cells = experiment: Mitotic divisions after induction (BrdU incorporation) in 3T3-L1; format: cell-based, mouse
Description: We evaluated whether the mammalian Sir2 orthologue, Sirt1, senses nutrient availability in WAT and mediates corresponding effects on fat accumulation. To probe whether Sirt1 may actually modulate adipogenesis, we used mouse 3T3-L1 fibroblasts as an in vitro model. Adipogenesis in these cells is promoted by the nuclear receptor PPAR-γ. Upon induction of adipogenesis by insulin, dexamethasone and isobutylmethylxanthine, we observed that Sirt1, protein levels increased and peaked at day 5 after hormonal stimulation. […] 3T3-L1 cells undergo one or two mitotic divisions after induction as a prelude to terminal differentiation.

3T3-L1 fibroblasts [7] = experiment: Isoproterenol-induced lipolysis in 3T3-L1 (fatty acid concentration); format: cell-based, mouse; conditions: day 7, isoproterenol (10^−5M), four hours; controls 0.627 mM (pBABE) and 0.508 mM (pSUPER)
Protocol: The amount of fat generated by adipocyte lipolysis should be proportional to the fat content of the adipocyte. In the experiment of this example, four samples of 3T3-L1 fibroblasts were prepared essentially as in Example 3 (except for the change in protocol noted below), and transformed as in Examples 4 and 5 with either pBABE control vector (“pBABE control fibroblasts”), pBABE-mSIRT1 cDNA (“mSIRT1 cDNA fibroblasts”), pSUPER control vector (“pSUPER control fibroblasts”), or pSUPER-mSIRT1 RNAi WT (SEQ ID NO: 24) (“mSIRT1 RNAi WT fibroblasts”).
Fatty acid concentrations in each of the four samples were measured four hours later and the results of these measurements are shown in FIG. 1. Six wells were used for each of the four samples. Results from the different wells were averaged.

3T3-L1 fibroblasts [8] = experiment: Intracellular triglyceride levels in transformed 3T3-L1; format: cell-based, mouse; conditions: day 7, Folch extraction, six wells per condition
Protocol: Fibroblast intracellular trigylceride (“TG”) levels should decrease upon inhibition of fibroblast differentiation resulting from overexpression of SIRT1. Consistent with Examples 4 and 5, it should be possible to measure in a quantitative manner the amount of intracellular triglycerides that can be observed by Oil Red O staining. To do so, 3T3-L1 fibroblasts were prepared as in Example 3 and transformed as in Examples 4 and 5 with either pBABE control vector (“pBABE control fibroblasts”), pBABE-mSIRT1 cDNA (“mSIRT1 cDNA fibroblasts”), pSUPER control vector (“pSUPER control fibroblasts”), or pSUPER-mSIRT1 RNAi WT (SEQ ID NO: 24) (“mSIRT1 RNAi WT fibroblasts”).
At day 7, the cells were lysed in methanol and neutral lipids were extracted by the Folch method and resuspended in isopropanol. Triglyceride levels were measured by calorimetric methods using a commercial kit (Trig/GB #450032, Roche Diagnostics, Indianapolis, Ind.). Six wells per condition were analyzed.

Molecule: NC(=O)c1cccnc1 [nicotinamide]
- release of FFA triggered by adrenalin [1]: reduced

Molecule: Oc1ccc(/C=C/c2cc(O)cc(O)c2)cc1 [resveratrol, 3,5,4′-trihydroxy-tans-stilbene]
- release of FFA triggered by adrenalin [1]: greatly stimulated
- UCP1 expression (UCP1): increases
- fat content after staining (3T3-L1 adipocytes [2]; cells in which Sirt1 levels were knocked down): no drug-mediated fat reduction
- fat content after staining (3T3-L1 adipocytes [2]; fully differentiated 3T3-L1 cells, 12 days after induction, 50 and 100 μM resveratrol): strong reduction in fat
- release of FFA (3T3-L1 adipocytes [3]; Sirt1 knockdown cells): but not in the Sirt1 knockdown cells
- release of FFA (3T3-L1 adipocytes [3]; control cells): stimulated
- triglyceride content (3T3-L1 adipocytes [4]): reduced

Molecule: NCoR RNAi: pSUPER-NCoR RNAi virus, 5′-GCTGCATCCAAGGGCCATG-3′
- reduction of fat accretion by Sirt1 overexpression (3T3-L1 fibroblasts [5]; Sirt1-overexpressing 3T3-L1 fibroblasts infected with NCoR RNAi virus): largely prevented

Molecule: mSIRT1 RNAi WT: pSUPER vector with RNAi sequence 5′-GATGAAGTTGACCTCCTCA-3′ (SEQ ID NO: 24), interferes with SIRT1 expression
- PPARγ levels versus control fibroblasts ([6]; Western Blot of extracts from differentiated cells): Higher levels of PPARγ
- levels of C/EBPβ, C/EBPδ, C/EBPα, PPARγ and aP2 ([6]; semi-quantitative RT-PCR, GAPDH internal control): increased levels of all of the assayed transcription factors except C/EBPβ
- change of Sirt1 gene expression (SIRT1; retroviral infection of 3T3-L1 cells): downregulation (sevenfold)
- mitotic divisions after induction (3T3-L1 cells): occurred normally
- fat / triglyceride accumulation versus control vector (3T3-L1 fibroblasts [5]; Oil red O staining after 7 days of differentiation or intracellular triglyceride content): significant increase in triglyceride accumulation
- differentiation by Oil Red O staining versus control fibroblasts (3T3-L1 fibroblasts [5]; transformed 3T3-L1 fibroblasts): marked increase in differentiation
- lipolysis level (fatty acid concentration) (3T3-L1 fibroblasts [7]): 0.727 mM
- TG levels versus respective control (3T3-L1 fibroblasts [8]): higher

Molecule: mSIRT1 RNAiMUT: mutation of mSIRT1 RNAiWT, 5′-GATGAAGTCGACCTCCTCA-3′ (SEQ ID NO: 25) (expressed or natural sequence)
- SIRT1 expression level versus control fibroblasts (SIRT1): comparable with those of the control fibroblasts
- SIRT1 expression level versus control fibroblasts (SIRT1; listed as SIRT1 mRNAi-mut): no effect on SIRT1 expression
